Reference: PubChem BioAssay AID2060488 (Molecular Pharmacology Branch, DTP, NCI, 2025)

Tested on: 966289-007-R4-J1-PDC complex spheroid viability
Test: Anticancer human tumor 966289-007-R4-J1-PDC patient-derived pancreatic adenocarcinoma cell line growth inhibition [GQUAD]
Settings: for IC50: curve of first compound; for viability, T/C: stronger effect = lower value
Summary of the method: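 Tumor cells were grown as complex spheroids with HUVEC endothelial cells and mesenchymal stem cells as stroma. G-quadruplex stabilizers were combined with targeted agents over half-log dilutions from near the clinical Cmax, or from 10 microM.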

[1] = second compound 0.0316 µM, first compound 0.0316 µM
[2] = second compound 0.0316 µM, first compound 0.1 µM
[3] = second compound 0.0316 µM, first compound 0.316 µM
[4] = second compound 0.0316 µM, first compound 1 µM
[5] = second compound 0.0316 µM, first compound 3.16 µM
[6] = second compound 0.0316 µM, first compound 10 µM
[7] = second compound 0.1 µM, first compound 0.0316 µM
[8] = second compound 0.1 µM, first compound 0.1 µM
[9] = second compound 0.1 µM, first compound 0.316 µM
[10] = second compound 0.1 µM, first compound 1 µM
[11] = second compound 0.1 µM, first compound 3.16 µM
[12] = second compound 0.1 µM, first compound 10 µM
[13] = second compound 0.316 µM, first compound 0.0316 µM
[14] = second compound 0.316 µM, first compound 0.1 µM
[15] = second compound 0.316 µM, first compound 0.316 µM
[16] = second compound 0.316 µM, first compound 1 µM
[17] = second compound 0.316 µM, first compound 3.16 µM
[18] = second compound 0.316 µM, first compound 10 µM
[19] = second compound 1 µM, first compound 0.0316 µM
[20] = second compound 1 µM, first compound 0.1 µM
[21] = second compound 1 µM, first compound 0.316 µM
[22] = second compound 1 µM, first compound 1 µM
[23] = second compound 1 µM, first compound 3.16 µM
[24] = second compound 1 µM, first compound 10 µM
[25] = second compound 3.16 µM, first compound 0.0316 µM
[26] = second compound 3.16 µM, first compound 0.1 µM
[27] = second compound 3.16 µM, first compound 0.316 µM
[28] = second compound 3.16 µM, first compound 1 µM
[29] = second compound 3.16 µM, first compound 3.16 µM
[30] = second compound 3.16 µM, first compound 10 µM
[31] = second compound 10 µM, first compound 0.0316 µM
[32] = second compound 10 µM, first compound 0.1 µM
[33] = second compound 10 µM, first compound 0.316 µM
[34] = second compound 10 µM, first compound 1 µM
[35] = second compound 10 µM, first compound 3.16 µM
[36] = second compound 10 µM, first compound 10 µM
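Further: spheroids exposed to the agents for seven days before readout.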
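Wherever viability, T/C is given: percent viability relative to DMSO vehicle control wells taken as 100%.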

O=c1[nH]cc(F)c(=O)[nH]1 + Cc1[nH]c2ccc(F)cc2c1-c1nc2c3cccnc3c3ncccc3c2[nH]1
IC50 (second compound 0.0316 µM): 159 nM | IC50 (second compound 0.1 µM): 186 nM | IC50 (second compound 0.316 µM): 181 nM | IC50 (second compound 1 µM): 164 nM | IC50 (second compound 3.16 µM): 150 nM | IC50 (second compound 10 µM): 93.4 nM | viability, T/C [1]: 111% | viability, T/C [2]: 74.5% | viability, T/C [3]: 13.6% | viability, T/C [4]: 5.76% | viability, T/C [5]: 6.03% | viability, T/C [6]: 6.51% | viability, T/C [7]: 112% | viability, T/C [8]: 92.4% | viability, T/C [9]: 13.9% | viability, T/C [10]: 6.57% | viability, T/C [11]: 5.93% | viability, T/C [12]: 6.8% | viability, T/C [13]: 95.9% | viability, T/C [14]: 90.5% | viability, T/C [15]: 12.1% | viability, T/C [16]: 7.51% | viability, T/C [17]: 5.56% | viability, T/C [18]: 6.35% | viability, T/C [19]: 96.3% | viability, T/C [20]: 76.5% | viability, T/C [21]: 14.8% | viability, T/C [22]: 7.21% | viability, T/C [23]: 6.11% | viability, T/C [24]: 6.82% | viability, T/C [25]: 110% | viability, T/C [26]: 68.8% | viability, T/C [27]: 15.2% | viability, T/C [28]: 9.36% | viability, T/C [29]: 7.92% | viability, T/C [30]: 9.72% | viability, T/C [31]: 114% | viability, T/C [32]: 46% | viability, T/C [33]: 14.6% | viability, T/C [34]: 9.18% | viability, T/C [35]: 6.61% | viability, T/C [36]: 7.61%

C=CCn1c(=O)c2cnc(Nc3ccc(N4CCN(C)CC4)cc3)nc2n1-c1cccc(C(C)(C)O)n1 + CN(C)c1ccc(Nc2c3ccc(NC(=O)CCN4CCCC4)cc3nc3cc(NC(=O)CCN4CCCC4)ccc23)cc1
IC50 (second compound 0.0316 µM): 1850 nM | IC50 (second compound 0.1 µM): 1880 nM | IC50 (second compound 0.316 µM): 1900 nM | IC50 (second compound 1 µM): 1900 nM | IC50 (second compound 3.16 µM): 1750 nM | IC50 (second compound 10 µM): 1320 nM | viability, T/C [1]: 104% | viability, T/C [2]: 103% | viability, T/C [3]: 113% | viability, T/C [4]: 99.8% | viability, T/C [5]: 6.96% | viability, T/C [6]: 2.02% | viability, T/C [7]: 99.6% | viability, T/C [8]: 103% | viability, T/C [9]: 111% | viability, T/C [10]: 101% | viability, T/C [11]: 8.04% | viability, T/C [12]: 1.98% | viability, T/C [13]: 96.8% | viability, T/C [14]: 97.2% | viability, T/C [15]: 110% | viability, T/C [16]: 102% | viability, T/C [17]: 8.92% | viability, T/C [18]: 1.93% | viability, T/C [19]: 95.3% | viability, T/C [20]: 108% | viability, T/C [21]: 113% | viability, T/C [22]: 102% | viability, T/C [23]: 8.33% | viability, T/C [24]: 2.74% | viability, T/C [25]: 104% | viability, T/C [26]: 104% | viability, T/C [27]: 112% | viability, T/C [28]: 88.2% | viability, T/C [29]: 9.59% | viability, T/C [30]: 4.27% | viability, T/C [31]: 105% | viability, T/C [32]: 102% | viability, T/C [33]: 101% | viability, T/C [34]: 64.6% | viability, T/C [35]: 3.41% | viability, T/C [36]: 1.03%
